Measurements published in US10426717B2, “Glycol esters of dicaffeoylquinic acid and uses thereof” (PLANT ADVANCED TECHNOLOGIES PAT, priority 2016, dated 2019).

What was measured:
[1] = tested on: human dermis fibroblasts NHDFs; test: Cytotoxicity study of the fractions, cell viability to MTS (Example 3); type: cell-based; conditions: 24 h, 100, 50, 25, 12.5 and 6.25 μM, cytotoxicity threshold 80% viability
Method: (§1) The study has been made on human dermis fibroblasts NHDFs (ATCC, CRL-2522, origin: foreskin) at about 40% of their proliferative potential in vitro. These cells have been cultivated in single layer in DMEM medium (Invitrogen, 31885-049) containing 10% foetal calf serum (Invitrogen, 10270-106) and antibiotics (penicillin/streptomycin, Invitrogen, 15140-122). These cells have been maintained in a wet atmosphere at 37° C. containing 5% CO2.
In order to determine the optimum analysis concentration for the fractions, a preliminary experiment has been made on human dermis fibroblasts NHDFs having performed 30.3 population doublings. This study consisted in evaluating cell viability to MTS (3-(4,5-dimethythiazol-2-yl)-5-(3-carboxy-methoxyphenyl)-2-(4-sulphophenyl)-2H-tetrazolium) (Promega, G3581) after 24 h treatment for the 4 fractions, at 5 concentrations (100 μM, 50 μM, 25 μM, 12.5 μM, and 6.25 μM) and in culture triplicates (n=3). The fractions and extract have been prepared in DMSO and DPG70 respectively, the effect of these 2 vehicles has also been tested.
0.08% SDS (sodium dodecyl sulphate) has been used as a cytotoxicity positive control in order to validate the experiment.
In order to determine the optimum study concentration of the 4 fractions, a cytotoxicity study has been made on human dermis fibroblasts NHDFs, based on 5 concentrations after 24 h contact (n=3). The experimental parameters were identical to those used in the following for the study of the effects on the gene expression in terms of culture passages of the cells, confluence and contact time. The effect of the 2 vehicles (DPG70 and DMSO) has been tested in parallel.
The results have been compared to the untreated control and 0.08% SDS has been used as a cytotoxicity positive control in order to validate the experiment. The cytotoxicity threshold has been arbitrarily set to 80% viability.

fibroblasts NHDFs [2] = test: Real time qPCR of Nrf-2 regulated genes (Example 3); type: cell-based, human; conditions: 24 h, fraction at 50 μM, vs 0.5% DMSO control
Source text: In order to determine which fraction of the extract according to the invention is responsible for this effect, the expression variations of seven target markers (involved in cellular and skin ageing induced by four fractions of an Ipomoea batatas root extract, and by the extract itself, in fibroblasts have been measured by qRT-PCR. A condition corresponding to fibroblasts NHDFs irradiated with UVA (10 J/cm^2) has been analysed in parallel as a positive control for the test.
The seven markers studied (HOMX1, NQO1, HSPA1A, GCLM, GSTP1, UGT1A6 and NOS2) are genes the expression of which is known to be regulated by the transcription factor Nrf-2, playing a major role in the antioxidant defence.
as §1
The extraction of total RNAs has been made using the RNeasy kit (Qiagen, 74106), after 24 h treatment with the fractions or 6 h after UVA irradiation. The cells have been rinsed with PBS and lysed in ad hoc buffer (culture triplicates have been made for each condition). The extraction and purification of the RNAs have been made according to the supplier's instructions. The total RNAs have been preserved at −80° C. afterwards.
The real time qPCR method has been used to quantise the expression of target markers in the different populations of RNAs. The specific TaqMan probes have been synthesised by the company Applied Biosystems.
The target sequences of the genes of interest have been amplified by PCR by using the “TaqMan Gene Expression Assays” (Applied Biosystems). […] The TaqMan probes have been grafted with a fluorophore (FAM) at the 5′ end of the sequence with a 3′ fluorescence quencher. […]

fibroblasts NHDFs [3] = test: Induction of a radical stress by the actives, ROS with H2DCFDA probe; type: cell-based, human; conditions: fibroblasts treated with Trolox, normalised to MTS viability, vs 0.1% EtOH control
Method: The study has been made on human dermis fibroblasts NHDFs (ATCC, CRL-2522, origin: foreskin) cultured in single layer in DMEM medium (Invitrogen, 31885-049) containing 10% foetal calf serum (Invitrogen, 10270-106) and antibiotics (Penicillin/Streptomycin, Invitrogen, 15140-122). These cells have been maintained in a wet atmosphere at 37° C. containing 5% CO2. In order to validate the hypothesis of a hormetic effect, it has been checked beforehand that the treatment by the actives alone induced a radical stress. The test used is based on the use of the fluorescent probe H2DCFDA (2′-7′dichlorodihydrofluorescein diacetate, Fischer Scientific, #D399). The probe diffusion into the cell enables its acetate group to be cleaved by intracellular esterases. […] The production of free radicals can thus be quantised by the level of fluorescence emitted by the probe oxidised. […] After rinsing, the fluorescence emitted has been quantised (excitation: 485 nm; emission: 520 nm). In order to provide a result representative of the cellular population of each condition, a cellular viability test (MTS) has been made immediately after quantising the fluorescence emitted. The fluorescence values have thus been normalised with respect to the cellular viabilities.

| SMILES | cytotoxicity (cell viability to MTS) [1] | overexpression of genes of interest (HMOX1, HSPA1A, NQO1, GCLM, GSTP1; FIGS. 7 to 11) (fibroblasts NHDFs [2]) | production of reactive oxygen species (ROS), radical stress (fibroblasts NHDFs [3]) |
| --- | --- | --- | --- |
| O=C(/C=C/c1ccc(O)c(O)c1)OC1CC(O)(C(=O)O)CC(O)C1OC(=O)/C=C/c1ccc(O)c(O)c1 (stereo not shown) [STL964, 3,4-DCQ (Isochlorogenic acid B)] | no cytotoxicity | do not induce an overexpression | – |
| O=C(/C=C/c1ccc(O)c(O)c1)OC1CC(O)(C(=O)O)CC(OC(=O)/C=C/c2ccc(O)c(O)c2)C1O (stereo not shown) [STL965, 3,5-DCQ (Isochlorogenic acid A)] | no cytotoxicity | do not induce an overexpression | – |
| O=C(/C=C/c1ccc(O)c(O)c1)OC1CC(O)(C(=O)O)CC(O)C1OC(=O)/C=C/c1ccc(O)c(O)c1 (stereo not shown) [STL967, 4,5-DCQ (Isochlorogenic acid C)] | no cytotoxicity | do not induce an overexpression | – |
| Cc1c(C)c2c(c(C)c1O)CCC(C)(C(=O)O)O2 (stereo not shown) [Trolox] | – | – | no radical stress |
